The record followed here is patent US20040092561A1, “Azolidinone-vinyl fused -benzene derivatives” (priority 2002, published 2004).

The target of assay [1] is PI3Kγ (Homo sapiens, UniProt P48736). As to the kind of experiment: High Throughput PI3K Lipid Kinase Assay (Binding Assay), SPA with neomycin-coated beads. Conditions: Human recombinant GST-PI3Kγ; [33P]γ-ATP; 180 minutes, room temperature. Type of assay: biochemical. The protocol: a) High Throughput PI3K Lipid Kinase Assay (Binding Assay)
The assay combines the scintillation proximity assay technology (SPA, Amersham) with the capacity of neomycin (a polycationic antibiotic) to bind phospholipids with high affinity and specificity. The Scintillation Proximity Assay is based on the properties of weakly emitting isotopes (such as ^3H, ^125I, ^33P). Coating SPA beads with neomycin allows the detection of phosphorylated lipid substrates after incubation with recombinant PI3K and radioactive ATP in the same well, by capturing the radioactive phospholipids to the SPA beads through their specific binding to neomycin.
To a 384 wells MTP containing 5 μl of a chemical compound library (containing 6% DMSO), the following assay components are added. 1) 5 μl (58 ng) of Human recombinant GST-PI3Kγ (in Hepes 40 mM, pH 7.4, DTT 1 mM and ethylenglycol 5%) 2) 10 μl of lipid micelles and 3) 10 μl of Kinase buffer ([^33P]γ-ATP 45 μM/60 nCi, MgCl2 30 mM, DTT 1 mM, P-Glycerophosphate 1 mM, NaVO4 100 μM, Na Cholate 0.3%, in Hepes 40 mM, pH 7.4). After incubation at room temperature for 180 minutes, with gentle agitation, the reaction is stopped by addition of 60 μl of a solution containing 100 μg of neomycin-coated PVT SPA beads in PBS containing ATP 10 mM and EDTA 5 mM. The assay is further incubated at room temperature for 60 minutes with gentle agitation to allow binding of phospholipids to neomycin-SPA beads. After precipitation of the neomycin-coated PVT SPA beads for 5 minutes at 1500×g, radioactive PtdIns(3)P is quantified by scintillation counting in a Wallac MicroBeta™ plate counter.
The values indicated in respect of PI3K γ refer to the IC50 (μM), i.e. the amount necessary to achieve 50% inhibition of said target. Said values show a considerable potency of the azolidinone-vinyl fused-benzene compounds with regard to PI3Kγ.

In assay [2] the test system is Akt/PKB phosphorylation in macrophages. The experiment in a line: Cell Based ELISA to Monitor PI3K Inhibition: Akt/PKB phosphorylation in Raw 264-7 macrophages after stimulation with C5a. Conditions: Mus musculus, RAW264.7, 50 nM C5a, 5 minutes, 20 minutes pretreatment, read-out: inhibition of C5a-mediated AKT-phosphorylation. The protocol: b) Cell Based ELISA to Monitor PI3K Inhibition
Measurement of Akt/PKB phosphorylation in macrophages after stimulation with C5a: Raw 264: Raw 264-7 macrophages (cultured in DMEM-F12 medium containing 10%
Fetal Calf serum and antibiotics) are plated at 20'000 cells/well in a 96 MTP 24 h before cell stimulation. Previous to the stimulation with 50 nM of Complement 5a during 5 minutes, Cells are serum starved for 2 h, and pretreated with inhibitors for 20 minutes. After stimulation cells are fixed in 4% formaldehyde for 20 minutes and washed 3 times in PBS containing 1% Triton X-100 (PBS/Triton). Endogenous peroxidase is blocked by a 20 minutes incubation in 0.6% H2O2 and 0.1% Sodium Azide in PBS/Triton and washed 3 times in PBS/Triton. Cells are then blocked by 60 minutes incubation with 10% fetal calf serum in PBS/Triton. Next, phosphorylated Akt/PKB is detected by an overnight incubation at 4° C. with first antibody (anti phospho Serine 473 Akt IHC, Cell Signaling) diluted 800-fold in PBS/Triton, containing 5% bovine serum albumin (BSA). After 3 washes in PBS/Triton, cells are incubated for 60 minutes with a peroxidase conjugated goat-anti-rabbit antibody ( 1/400 dilution in PBS/Triton, containing 5% BSA), washed 3 times in PBS/Triton, and 2 times in PBS and further incubated in 100 μl of substrate reagent solution (R&D) for 20 minutes. The reaction is stopped by addition of 50 μI of 1 M SO4H2 and absorbance is read at 450 nm.
The values indicated reflect the percentage of inhibition of AKT phoshorylation as compared to basal level. Said values show a clear effect of the azolidinone-vinyl fused-benzene compounds on the activation of AKT phosphorylation in macrophages.
For orientation: ELISA stands for enzyme-linked immunosorbent assay.

PI3Kγ, sequence (P48736 whole entry): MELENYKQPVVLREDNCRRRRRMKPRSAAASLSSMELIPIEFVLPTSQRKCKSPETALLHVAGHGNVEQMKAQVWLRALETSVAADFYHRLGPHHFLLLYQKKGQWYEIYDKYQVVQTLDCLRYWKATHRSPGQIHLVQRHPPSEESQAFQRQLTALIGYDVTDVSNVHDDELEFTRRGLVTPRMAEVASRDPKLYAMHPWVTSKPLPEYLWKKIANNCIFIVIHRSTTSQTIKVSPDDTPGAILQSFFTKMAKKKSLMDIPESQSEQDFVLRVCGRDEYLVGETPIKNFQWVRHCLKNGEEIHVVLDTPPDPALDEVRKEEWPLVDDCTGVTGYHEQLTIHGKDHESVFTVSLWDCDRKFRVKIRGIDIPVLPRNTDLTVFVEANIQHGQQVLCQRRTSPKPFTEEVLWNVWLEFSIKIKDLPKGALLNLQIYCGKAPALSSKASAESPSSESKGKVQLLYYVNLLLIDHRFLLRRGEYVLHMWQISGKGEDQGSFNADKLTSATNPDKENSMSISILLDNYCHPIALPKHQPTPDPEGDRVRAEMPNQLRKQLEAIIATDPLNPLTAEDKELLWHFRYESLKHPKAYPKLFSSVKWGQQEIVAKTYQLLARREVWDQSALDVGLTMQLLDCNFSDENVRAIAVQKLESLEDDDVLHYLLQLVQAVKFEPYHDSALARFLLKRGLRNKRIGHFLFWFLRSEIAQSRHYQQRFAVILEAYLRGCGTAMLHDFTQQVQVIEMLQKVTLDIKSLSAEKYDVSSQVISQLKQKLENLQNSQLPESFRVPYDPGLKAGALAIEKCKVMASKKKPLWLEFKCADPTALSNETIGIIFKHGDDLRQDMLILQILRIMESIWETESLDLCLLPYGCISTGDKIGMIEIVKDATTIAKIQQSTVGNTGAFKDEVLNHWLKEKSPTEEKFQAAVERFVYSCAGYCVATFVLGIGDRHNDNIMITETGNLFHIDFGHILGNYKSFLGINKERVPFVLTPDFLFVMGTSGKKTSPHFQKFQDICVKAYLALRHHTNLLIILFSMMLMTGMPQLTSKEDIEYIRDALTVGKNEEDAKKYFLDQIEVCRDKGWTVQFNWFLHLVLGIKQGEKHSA

`O=C1NC(=S)S/C1=C/c1ccc2c(c1)OCO2` [Example 2, (5E)-5-(1,3-benzodioxol-5-ylmethylene)-2-thioxo-1,3-thiazolidin-4-one]: the IC50 (commonly the point on the concentration scale where inhibition reaches its midpoint) in assay [1] was 60 nM. Besides, the inhibition (as a rule, the relative decrease from the control value, in per cent) at 10 µM in assay [2] worked out at 80%. For `O=C1NC(=O)/C(=C/c2ccc3c(c2)CCO3)S1` [Example 4, (5Z)-5-(2,3-dihydro-1-benzofuran-5-ylmethylene)-1,3-thiazolidine-2,4-dione], the inhibition at 10 µM in assay [2] turned out to be 80%. For `CN1C(=O)COc2ccc(/C=C3\SC(=O)NC3=O)cc21` [Example 10, (5Z)-5-[(4-methyl-3-oxo-3,4-dihydro-2H-1,4-benzoxazin-6-yl)methylene]-1,3-thiazolidine-2,4-dione], the IC50 in assay [1] is 30 nM. As to `O=C1NC(=O)/C(=C/c2ccc3c(c2)OCO3)S1` [Example 1, (5Z)-5-(1,3-benzodioxol-5-ylmethylene)-1,3-thiazolidine-2,4-dione], the 50% inhibitory concentration (IC50) in assay [1] came to 50 nM. In addition, the inhibition at 10 µM in assay [2] was 80%.
